Reference: patent EP2386565A2, “Compounds and methods to inhibit or augment an inflammatory response” (Cambridge Enterprise Ltd., priority 1999, dated 2000)
Positions of bridges follow the written chain, without caps; N, C: chain ends. Non-standard residues stand in square brackets, D forms with d. Residues, ends and D or L forms follow the SMILES beside them. No end group written: not given here.

Assays:
[1] = target: T1, Duffy Antigen Receptor for Chemokines (DARC) (Homo sapiens, UniProt Q16570); test: DARC binding: competition with 125I-MCP-1 on red blood cells; conditions: for DARC binding (µM): ns = not significantly different from control, >100 = not determined
T1 sequence (Q16570 1-336): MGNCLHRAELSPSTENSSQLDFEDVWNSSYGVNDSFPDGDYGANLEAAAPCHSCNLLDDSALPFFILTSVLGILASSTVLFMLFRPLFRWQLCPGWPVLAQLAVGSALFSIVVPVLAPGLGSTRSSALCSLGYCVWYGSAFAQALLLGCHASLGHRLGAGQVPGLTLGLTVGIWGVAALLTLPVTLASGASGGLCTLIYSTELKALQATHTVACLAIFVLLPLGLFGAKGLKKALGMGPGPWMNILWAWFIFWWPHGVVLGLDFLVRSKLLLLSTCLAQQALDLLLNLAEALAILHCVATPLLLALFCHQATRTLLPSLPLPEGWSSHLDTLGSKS

[2] = tested on: MCP-1 induced THP-1 migration; test: THP-1 trans-well migration assay, MCP-1 as chemoattractant; assay type: cell-based, human; conditions: for ED50 v MCP-1: MCP-1 induced chemotaxis of THP-1 cells; for ED50 (µM) versus MCP-1: inhibition of THP-1 migration, n.s./ns = not statistically significant; for % inhibition at 100 µM versus MCP-1: THP-1 migration, agent at 100 µM with the cells, n.s. or dash = no statistically significant inhibition
Method: (§1) To determine whether an agent inhibits a chemokine-induced activity, such as macrophage recruitment, varying amounts of the agent are mixed with cells in the presence of a known chemoattractant. For example, a range of known concentrations of an agent, e.g., a chemokine peptide, is incubated with a defined number (e.g., 10^4 - […]) of human THP-1 monocyte cells in individual wells of the top compartment of a trans-well plate. Chemokine (such as MCP-1, MIP1α, IL8 or SDF-1α), at a concentration known to cause significant migration of THP-1 cells in the trans-well migration assay, is placed in the lower compartment (Figure 1). Cells are then incubated at 37°C for a period sufficient to allow migration, e.g., 4 hours. After incubation, the cells are gently removed from the top of the filter with a pipette, 20 µl of 20 mM EDTA in simple PBS is added into each top well, and incubated for 20 minutes at 4°C. The filter is carefully flushed with media using a gentle flow, and removed. A standard curve consisting of a two-fold dilution series of THP-1 cells (in 29 µl) is prepared to accurately quantify the number of cells that have migrated. Migrated cells are stained with 3 µl of MTT stock dye solution which is added directly into each well (5 mg/ml in RPMI-1640 without phenol red, Sigma Chemical Co.) and incubated at 37°C for 4 hours. The media is carefully aspirated from each well, and the converted dye is solubilized by 20 µl of DMSO. Absorbance of converted dye is measured at a wavelength of 595 nm using an ELISA plate reader. The number of migrated cells in each well is then determined by interpolation of the standard curve (see also Imai et al.,J. Biol. Chem., 272, 15036 (1997)).
Any method suitable for counting cells can be used, for example, counting with a hemocytometer, incubation of the cells with MTT (see above), or FACS analysis. A negative control assay is also performed, using TGF-β or another non-chemokine chemoattractant (e.g., IL1β or TNFα). To assess whether the agent is cytotoxic, the same concentrations of agent are incubated with THP-1 cells. Agents which 1) are not cytotoxic at levels which inhibit migration, 2) are ineffective at inhibiting the negative control-induced migration, and 3) reduce or inhibit chemokine-induced THP-1 migration, are agents which fall within the scope of the invention.
For this assay, THP-1 cells were maintained at a density of 4 × 10^5 cells per ml in RPMI-1640 supplemented with 10% fetal calf serum + 20 µM 2-mercaptoethanol. Chemotaxis was induced in a 96-well disposable chemotaxis chamber fitted with a 5 µM polycarbonate filter (PVP free, ChemoTX, Neuroprobe Inc., Cabin John). […] The framed filter was aligned with the holes in the corner of the filter frame and placed over the wells.
(§2) Five × 10^4 THP-1 cells in 25 µl of RPMI-1640 were added to the upper compartment. Peptides were dissolved in Milli Q water and then serially diluted in culture medium. In most cases, the serially diluted peptides were added to the upper compartment of the chemotaxis chamber. The chamber was incubated at 37°C in a humidified atmosphere of 5% CO2 for 4 hours.
After incubation, the cells were gently removed from the top of the filter with a pipette, 20 µl of 20 mM EDTA in PBS was added into each top well, and the mixture was incubated for 20 minutes at 4°C. The filter was then carefully flushed with media using a gentle flow, and removed. A standard curve was prepared to accurately quantify the number of THP-1 cells that had migrated. The curve was based on a two-fold dilution series of THP-1 cells (top standard 100,000 cells in 29 µl). Cells which had migrated, and in separate wells, the cells in the standards, were stained with 3 µl of MTT stock solution which was added directly into each well (5 mg/ml in RPMI 1640 without phenol red, Sigma Chemical Co.) and incubated at 37°C for 4 hours. The media was carefully aspirated from each well, and the converted dye was solubilized by 20 µl of DMSO. […]

[3] = tested on: MIP1α induced THP-1 migration; test: THP-1 trans-well migration assay, MIP1α as chemoattractant; assay type: cell-based, human; conditions: for ED50 (µM) versus MIP1α: inhibition of THP-1 migration, n.s./ns = not statistically significant
Method: as §1
(§3) For this assay, THP-1 cells were maintained at a density of 4 × 10^5 cells per ml in RPMI-1640 supplemented with 10% fetal calf serum + 20 µM 2-mercaptoethanol. Chemotaxis was induced in a 96-well disposable chemotaxis chamber fitted with a 5 µM polycarbonate filter (PVP free, ChemoTX, Neuroprobe Inc., Cabin John). Twenty-nine µl of chemoattractant (recombinant human chemokine; 50 ng/ml, i.e., 5.9 nM) or control (100 ng/ml TGFβ) was added to the lower compartment of each well. The framed filter was aligned with the holes in the corner of the filter frame and placed over the wells.
as §2
(§4) After incubation, the cells were gently removed from the top of the filter with a pipette, 20 µl of 20 mM EDTA in PBS was added into each top well, and the mixture was incubated for 20 minutes at 4°C. The filter was then carefully flushed with media using a gentle flow, and removed. A standard curve was prepared to accurately quantify the number of THP-1 cells that had migrated. The curve was based on a two-fold dilution series of THP-1 cells (top standard 100,000 cells in 29 µl). Cells which had migrated, and in separate wells, the cells in the standards, were stained with 3 µl of MTT stock solution which was added directly into each well (5 mg/ml in RPMI 1640 without phenol red, Sigma Chemical Co.) and incubated at 37°C for 4 hours. The media was carefully aspirated from each well, and the converted dye was solubilized by 20 µl of DMSO. Absorbance of converted dye was measured at a wavelength of 595 nm using an ELISA plate reader. The number of cells that had migrated in each well was determined by interpolation of the standard curve.
(§5) To investigate the receptor specificity of peptide 3 inhibition, the ED50 was determined for peptide 3(1-12)[MCP-1] (SEQ ID NO:1) inhibition of THP-1 migration induced by chemokines which signal through different receptors than MCP-1 receptors. […]

[4] = tested on: SDF-1α induced THP-1 migration; test: THP-1 trans-well migration assay, SDF-1α as chemoattractant; assay type: cell-based, human; conditions: for ED50 (µM) versus SDF-1α: inhibition of THP-1 migration, n.s./ns = not statistically significant
Method: as §1, §3, §2, §4, §5

[5] = THP-1 migration, agent at 100 µM, n.s. or dash = no statistically significant inhibition

`CC[C@@H](C)[C@H]1NC(=O)[C@@H](CCC(N)=O)NC(=O)[C@H](N)CSSC[C@H](C(N)=O)NC(=O)[C@@H](CC(C)C)NC(=O)[C@@H](CC(=O)O)NC(=O)[C@H]2CCCN2C(=O)[C@@H](CCCCN)NC(=O)[C@@H](CCC(N)=O)NC(=O)[C@@H](CCCCN)NC(=O)[C@@H](Cc2c[nH]c3ccccc23)NC1=O` (H-[dC][dQ][dI][dW][dK][dQ][dK][dP][dD][dL][dC]-NH2; disulfide 1-11) was tested, and the “Duffy selectivity / DARC specificity ratio” value ([1]; estimated ka for binding to red blood cells divided by average inhibitory ED50) was over 100, the “potency as inhibitor of THP-1 migration induced by MCP-1 relative to the D-ala derivative” value [2] was 1000 fold and the “ED50 v MCP-1” value ([2]; listed as CRD-Cys13Leu4Ile11peptide 3(3-12)[MCP-1]) was 1 to 10 nM. For the same molecule, the “ED50 v MCP-1” value ([2]; listed as NR58-3.14.3) was 10 nM.
With “=cvaekpsksstirrysc= ([dC][dV][dA][dE][dK][dP][dS][dK][dS][dS][dT][dI][dR][dR][dY][dS][dC]; bridge 1-17 (inferred); not fully specified; printed as =cvaekpsksstirrysc=)” the “DARC binding (µM)” value [1] was “ns”, the “ED50 (µM) versus MIP1α” value [3] was “ns” and the “ED50 (µM) versus MCP-1” value [2] was “ns”. The “ED50 (µM) versus SDF-1α” value [4] was “ns”.
With `CC[C@H](C)[C@H](NC(=O)[C@H](C)NC(=O)[C@H](CC(=O)O)NC(=O)[C@@H]1CCCN1C(=O)[C@H](CCC(N)=O)NC(=O)[C@H](C)N)C(=O)N[C@@H](CC(N)=O)C(=O)N[C@@H](C)C(=O)N1CCC[C@H]1C(=O)N[C@H](C(=O)N[C@H](C(=O)N[C@@H](CS)C(=O)N[C@@H](CS)C(=O)O)[C@@H](C)O)C(C)C` [Peptide 1] (H-AQPDAINAPVTCC-OH; N-terminus and C-terminus assumed) the “% inhibition at 100 µM versus MIP1α” value [3, 5] was “n.s.^b”, the “ED50 (µM) versus MIP1α” value [3] was “n.s.^b” and the “% inhibition at 100 µM versus MCP-1” value [2] was “n.s.^b”. For the same molecule, the “% inhibition at 100 µM versus MCP-1” value ([2]; listed as Peptide 1[MCP-1]) was 10%, the “% inhibition at 100 µM versus MCP-1” value ([2]; listed as peptide 1[MCP-1]) was 10% and the “ED50 (µM) versus MCP-1” value [2] was “n.s.^b”. For the same molecule, the “ED50 (µM) versus MCP-1” value ([2]; listed as Peptide 1[MCP-1]) was over 100 µM, the “% inhibition of the MCP-1 induced migration at 100 µM” value ([2]; peptide introduced with the chemokine in the lower compartment) was 48% and the “% inhibition at 100 µM versus SDF-1α” value [4, 5] was “n.s”. The “ED50 (µM) versus SDF-1α” value [4] was “n.s”.
In the case of CSYRRITSSKSPKEAVC, the “DARC binding (µM)” value [1] is reported as “ns”, the “ED50 (µM) versus MIP1α” value [3] is reported as “ns” and the “ED50 (µM) versus MCP-1” value [2] is reported as “ns”. For the same molecule, the “ED50 (µM) versus SDF-1α” value [4] was “ns”.
